≈ marks a conversion by molar mass, not a printed value.
Assays:
[1] = Solubility in simulated intestinal fluid at pH 6.8 at 30 uM incubated for 90 mins by HPLC-UV analysis; format: ADME
[2] = Solubility in simulated intestinal fluid at pH 6.8 at 30 uM incubated for 90 mins in presence of 0.5% SDS by HPLC-UV analysis; format: ADME
[3] = biological target: Epidermal growth factor receptor (Homo sapiens, UniProt P00533); assay: Inhibition of human EGFR
[4] = Terminal half life in C57BL/6 mouse at 61 mg/kg, po and measured upto 24 hrs by LC-MS/MS analysis; format: ADME, organism-based; conditions: in vivo, read-out: beta t1/2 (converted)
[5] = Cmax in C57BL/6 mouse at 80 mg/kg, po and measured upto 24 hrs by LC-MS/MS analysis; format: ADME, organism-based; parameters: time < 24 hrs, dose 80 mg/kg, route po; conditions: in vivo
[6] = Solubility of compound in PBS at pH 9.0 at 30 uM incubated for 90 mins by HPLC-UV analysis; format: physicochemical
[7] = Solubility in simulated gastric fluid at pH 1.2 at 30 uM incubated for 90 mins in presence of 0.5% SDS by HPLC-UV analysis; format: ADME
[8] = Solubility in simulated gastric fluid at pH 1.2 at 30 uM incubated for 90 mins by HPLC-UV analysis; format: ADME
[9] = AUC (0-infinity) in C57BL/6 mouse at 80 mg/kg, po and measured upto 24 hrs by LC-MS/MS analysis; format: ADME, organism-based; parameters: time < 24 hrs, dose 80 mg/kg, route po; conditions: in vivo
[10] = Terminal half life in C57BL/6 mouse at 80 mg/kg, po and measured upto 24 hrs by LC-MS/MS analysis; format: ADME, organism-based; conditions: in vivo, read-out: beta t1/2 (converted)
[11] = AUC (0-t) in C57BL/6 mouse at 80 mg/kg, po and measured for 4 to 10 hrs by LC-MS/MS analysis; format: ADME, organism-based; parameters: time upper 10 hrs, dose 80 mg/kg, time lower 4 hrs, route po; conditions: in vivo
[12] = Dissociation constant, pKa of the compound at 10 mM incubated for 16 hrs with shaking by HPLC-UV analysis; format: physicochemical
[13] = Solubility of compound in PBS at pH 7.4 at 30 uM incubated for 90 mins by HPLC-UV analysis; format: physicochemical
[14] = Apparent permeability of compound at 20 mM and measured after 16 hrs by PAMPA assay; format: ADME
[15] = AUC (0-infinity) in C57BL/6 mouse at 61 mg/kg, po and measured upto 24 hrs by LC-MS/MS analysis; format: ADME, organism-based; parameters: dose 61 mg/kg, time < 24 hrs, route po; conditions: in vivo
[16] = Cmax in C57BL/6 mouse at 61 mg/kg, po and measured upto 24 hrs by LC-MS/MS analysis; format: ADME, organism-based; parameters: dose 61 mg/kg, time < 24 hrs, route po; conditions: in vivo
[17] = AUC (0-t) in C57BL/6 mouse at 61 mg/kg, po and measured for 4 to 10 hrs by LC-MS/MS analysis; format: ADME, organism-based; parameters: time lower 4 hrs, dose 61 mg/kg, time upper 10 hrs, route po; conditions: in vivo
[18] = Oral bioavailability in C57BL/6 mouse plasma at 63.5 mg/kg and measured upto 24 hrs by LC-MS/MS analysis; format: ADME, organism-based
[19] = Prodrug conversion in C57BL/6 mouse plasma assessed as (S)-2-(2-chloro-6-methylbenzamido)-3-(4-(1,3,6-trimethyl-2,4-dioxo-1,2,3,4-tetrahydropyrimidin-5-yl)phenyl)propanoic acid metabolite level at 100 mg/kg, po and measured after 6 hrs LC-MS/MS analysis; format: ADME, organism-based; conditions: in vivo
[20] = Octanol/water partition coefficient, logD of the compound at pH 7.4 at 10 mM incubated for 16 hrs with shaking by HPLC-UV analysis; format: physicochemical
[21] = Apparent permeability across apical to basolateral side in dog MDCK-MDR1 cells at 5 uM incubated for 60 mins by LC-MS/MS analysis; format: ADME, cell-based, Canis lupus familiaris
[22] = Prodrug conversion in C57BL/6 mouse plasma assessed as Cmax of (S)-2-(2-chloro-6-methylbenzamido)-3-(4-(1,3,6-trimethyl-2,4-dioxo-1,2,3,4-tetrahydropyrimidin-5-yl)phenyl)propanoic acid metabolite at 63.5 mg/kg,po and measured upto 24 hrs by LC-MS/MS analysis; format: ADME, organism-based; parameters: dose 63.5 mg/kg, time < 24 hrs, route po; conditions: in vivo
[23] = Prodrug conversion in C57BL/6 mouse plasma assessed as half life of (S)-2-(2-chloro-6-methylbenzamido)-3-(4-(1,3,6-trimethyl-2,4-dioxo-1,2,3,4-tetrahydropyrimidin-5-yl)phenyl)propanoic acid metabolite at 63.5 mg/kg,po and measured upto 24 hrs by LC-MS/MS analysis; format: ADME, organism-based; conditions: in vivo
[24] = Prodrug conversion in C57BL/6 mouse plasma assessed as AUC (0 to 6 hrs) of (S)-2-(2-chloro-6-methylbenzamido)-3-(4-(1,3,6-trimethyl-2,4-dioxo-1,2,3,4-tetrahydropyrimidin-5-yl)phenyl)propanoic acid metabolite at 63.5 mg/kg,po and measured upto 24 hrs by LC-MS/MS analysis; format: ADME, organism-based; parameters: time < 24 hrs, dose 63.5 mg/kg, route po; conditions: in vivo
[25] = Prodrug conversion in C57BL/6 mouse plasma assessed as Tmax of (S)-2-(2-chloro-6-methylbenzamido)-3-(4-(1,3,6-trimethyl-2,4-dioxo-1,2,3,4-tetrahydropyrimidin-5-yl)phenyl)propanoic acid metabolite at 63.5 mg/kg,po and measured upto 24 hrs by LC-MS/MS analysis; format: ADME, organism-based; conditions: in vivo
[26] = Prodrug conversion in C57BL/6 mouse plasma assessed as(S)-2-(2-chloro-6-methylbenzamido)-3-(4-(1,3,6-trimethyl-2,4-dioxo-1,2,3,4-tetrahydropyrimidin-5-yl)phenyl)propanoic acid metabolite level at 100 mg/kg, po and measured after 3 hrs LC-MS/MS analysis; format: ADME, organism-based; conditions: in vivo
[27] = Prodrug conversion in C57BL/6 mouse colon assessed as (S)-2-(2-chloro-6-methylbenzamido)-3-(4-(1,3,6-trimethyl-2,4-dioxo-1,2,3,4-tetrahydropyrimidin-5-yl)phenyl)propanoic acid metabolite level at 100 mg/kg, po and measured after 3 hrs LC-MS/MS analysis; format: ADME, organism-based; conditions: in vivo
[28] = Prodrug conversion in C57BL/6 mouse colon assessed as (S)-2-(2-chloro-6-methylbenzamido)-3-(4-(1,3,6-trimethyl-2,4-dioxo-1,2,3,4-tetrahydropyrimidin-5-yl)phenyl)propanoic acid metabolite level at 100 mg/kg, po and measured after 6 hrs LC-MS/MS analysis; format: ADME, organism-based; conditions: in vivo
[29] = Cmax in C57BL/6 mouse plasma at 50 mg/kg,po and measured upto 24 hrs by LC-MS/MS analysis; format: ADME, organism-based; parameters: dose 50 mg/kg, time < 24 hrs, route po
[30] = Half life in C57BL/6 mouse plasma at 50 mg/kg,po and measured upto 24 hrs by LC-MS/MS analysis; format: ADME, organism-based
[31] = AUC (0-6 hrs) in C57BL/6 mouse plasma at 50 mg/kg,po and measured upto 24 hrs by LC-MS/MS analysis; format: ADME, organism-based; parameters: dose 50 mg/kg, time < 24 hrs, route po
[32] = Tmax in C57BL/6 mouse plasma at 50 mg/kg,po and measured upto 24 hrs by LC-MS/MS analysis; format: ADME, organism-based
[33] = Oral bioavailability in C57BL/6 mouse plasma at 50 mg/kg and measured upto 24 hrs by LC-MS/MS analysis; format: ADME, organism-based

Chain of Epidermal growth factor receptor (P00533 whole entry): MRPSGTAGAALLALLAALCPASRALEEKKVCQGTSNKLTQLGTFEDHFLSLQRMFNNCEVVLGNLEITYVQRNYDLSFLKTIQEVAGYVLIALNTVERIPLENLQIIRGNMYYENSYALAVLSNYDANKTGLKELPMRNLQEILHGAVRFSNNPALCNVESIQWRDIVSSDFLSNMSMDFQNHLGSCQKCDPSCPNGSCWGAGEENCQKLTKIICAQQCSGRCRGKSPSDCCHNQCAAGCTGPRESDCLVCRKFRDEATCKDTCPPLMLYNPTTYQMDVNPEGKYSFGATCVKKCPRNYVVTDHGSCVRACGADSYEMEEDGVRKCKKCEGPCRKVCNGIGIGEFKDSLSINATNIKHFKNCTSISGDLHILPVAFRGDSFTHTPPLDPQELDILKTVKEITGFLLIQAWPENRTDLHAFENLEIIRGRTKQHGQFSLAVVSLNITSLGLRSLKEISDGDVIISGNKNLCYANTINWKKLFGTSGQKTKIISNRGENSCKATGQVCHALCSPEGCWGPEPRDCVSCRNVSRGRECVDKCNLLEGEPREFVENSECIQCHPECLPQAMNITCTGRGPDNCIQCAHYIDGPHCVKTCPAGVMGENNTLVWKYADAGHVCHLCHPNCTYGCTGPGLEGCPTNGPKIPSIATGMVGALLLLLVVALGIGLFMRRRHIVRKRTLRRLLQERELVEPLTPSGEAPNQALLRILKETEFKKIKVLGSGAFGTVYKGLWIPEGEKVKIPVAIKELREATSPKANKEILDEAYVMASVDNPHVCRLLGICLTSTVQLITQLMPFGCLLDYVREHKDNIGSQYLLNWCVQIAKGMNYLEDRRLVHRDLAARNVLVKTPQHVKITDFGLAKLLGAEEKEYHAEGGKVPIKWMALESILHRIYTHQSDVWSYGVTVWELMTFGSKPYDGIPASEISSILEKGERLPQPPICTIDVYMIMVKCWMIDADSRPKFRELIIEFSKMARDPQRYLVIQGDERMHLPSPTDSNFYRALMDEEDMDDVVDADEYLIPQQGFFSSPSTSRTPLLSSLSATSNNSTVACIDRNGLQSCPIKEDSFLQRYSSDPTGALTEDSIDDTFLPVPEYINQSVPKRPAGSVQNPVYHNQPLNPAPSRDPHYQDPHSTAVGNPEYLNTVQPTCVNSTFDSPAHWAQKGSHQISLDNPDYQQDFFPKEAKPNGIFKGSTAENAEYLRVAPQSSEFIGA

| SMILES | solubility at 1.5 h, 30 µM [1] | solubility at 1.5 h, 30 µM [2] | half-life [4] | solubility at 1.5 h, 30 µM [6] | solubility at 1.5 h, 30 µM [7] | solubility at 1.5 h, 30 µM [8] | pKa at 16 h, 10000 µM [12] | solubility at 1.5 h, 30 µM [13] | Papp at 16 h, 20000 µM [14] | logD at 16 h, 10000 µM [20] | Papp A→B at 1 h, 5 µM [21] | further results |
| --- | --- | --- | --- | --- | --- | --- | --- | --- | --- | --- | --- | --- |
| COc1cc2ncnc(Nc3ccc(O[C@H]4CO[C@H]5[C@@H]4OC[C@@H]5O)c(Cl)c3)c2cc1OC | 65.4 µg/mL (≈ 142 µM) | 80.8 µg/mL | 1.19 h | 45.4 µg/mL (≈ 98.7 µM) | 56 µg/mL | 87.9 µg/mL (≈ 191 µM) | 5 | 19.8 µg/mL (≈ 43.1 µM) | 7.45 ×10⁻⁶ cm/s |  |  | IC50 [3]: 5.3 nM; Cmax [5]: 30100 ng/mL; AUC(0-inf) [9]: 44500 ng·h/mL; half-life [10]: 1.19 h; AUC(0-t) [11]: 44500 ng·h/mL |
| COc1cc2ncnc(Nc3ccc(F)c(Cl)c3)c2cc1OC | 51.7 µg/mL (≈ 155 µM) | 63.9 µg/mL | 1.9 h | 1.53 µg/mL (≈ 4.58 µM) | 23.6 µg/mL | 49.4 µg/mL (≈ 148 µM) | 4.51 | 1.3 µg/mL (≈ 3.9 µM) |  |  |  | AUC(0-inf) [15]: 26300 ng·h/mL; Cmax [16]: 7440 ng/mL; AUC(0-t) [17]: 25500 ng·h/mL |
| Cc1cccc(Cl)c1C(=O)N[C@@H](Cc1ccc(-c2c(C)n(C)c(=O)n(C)c2=O)cc1)C(=O)O[C@H]1CO[C@H]2[C@@H]1OC[C@@H]2O | 99.6 µg/mL (≈ 167 µM) |  |  |  |  | 126 µg/mL (≈ 210 µM) | 7.9 | 107 µg/mL (≈ 179 µM) | 1.68 ×10⁻⁶ cm/s | 1.2 | 2.5 ×10⁻⁶ cm/s | bioavailability [18]: 12%; Drug metabolism [19]: 200 ng/mL; Cmax [22]: 3193 ng/mL; t1/2 [23]: 1.63 h; AUC [24]: 2100 ng·h/mL; Tmax [25]: 0.25 h; Drug metabolism [26]: 500 ng/mL; Drug metabolism [27]: 200000 ng/g; Drug metabolism [28]: 100000 ng/g |
| Cc1cccc(Cl)c1C(=O)N[C@@H](Cc1ccc(-c2c(C)n(C)c(=O)n(C)c2=O)cc1)C(=O)O | 91.9 µg/mL (≈ 196 µM) |  |  |  |  | 94.7 µg/mL (≈ 202 µM) | 3.4 | 95.4 µg/mL (≈ 203 µM) |  | -1.1 | 1.3 ×10⁻⁶ cm/s | Cmax [29]: 425 ng/mL; half-life [30]: 0.67 h; AUC(0-t) at 24 h [31]: 616 ng·h/mL; Tmax [32]: 1 h; bioavailability [33]: < 1% |

— ChEMBL document CHEMBL5223181, “Incorporation of an Isohexide Subunit Improves the Drug-like Properties of Bioactive Compounds” (ACS Med Chem Lett, 2023)
